Columns and labels:
[1] = target: C-C chemokine receptor type 2 (Homo sapiens, UniProt P41597); type: cell membranes, CHO-K1, Membrane; settings: cho-k1; further: in other assays of this panel Not Active means under 50% inhibition at 10 µM
[2] = target: Beta-2 adrenergic receptor (Homo sapiens, UniProt P07550); assay: DRUGMATRIX: Adrenergic beta2 radioligand binding (ligand: [3H] CGP-12177); type: cell membranes, Membrane; settings: cho; Not Active = under 50% inhibition at 10 µM
[3] = target: Tyrosine-protein kinase Lck (Homo sapiens, UniProt P06239); assay: DRUGMATRIX: Protein Tyrosine Kinase, LCK enzyme inhibition (substrate: Poly(Glu:Tyr)); type: cell-based, Insect cells; settings: Not Active = under 50% inhibition at 10 µM
Tyrosine-protein kinase Lck, sequence (P06239 whole entry): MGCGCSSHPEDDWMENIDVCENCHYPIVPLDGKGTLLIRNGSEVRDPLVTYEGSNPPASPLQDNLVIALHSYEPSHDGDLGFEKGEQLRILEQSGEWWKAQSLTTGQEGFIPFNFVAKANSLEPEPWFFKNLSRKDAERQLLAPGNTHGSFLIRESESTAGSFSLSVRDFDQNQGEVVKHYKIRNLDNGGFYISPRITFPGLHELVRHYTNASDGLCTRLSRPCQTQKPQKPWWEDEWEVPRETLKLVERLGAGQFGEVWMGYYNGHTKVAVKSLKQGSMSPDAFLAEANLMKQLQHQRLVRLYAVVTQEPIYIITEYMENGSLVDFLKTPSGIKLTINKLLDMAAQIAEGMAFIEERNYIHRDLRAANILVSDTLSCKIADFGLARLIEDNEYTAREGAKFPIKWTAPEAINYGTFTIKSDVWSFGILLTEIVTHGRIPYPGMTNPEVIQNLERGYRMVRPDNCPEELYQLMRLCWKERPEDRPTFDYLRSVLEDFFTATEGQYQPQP

[4] = target: T1, Cholecystokinin receptor type A (Homo sapiens, UniProt P32238); type: cell membranes, Membrane; settings: 1321-n1; further: in other assays of this panel Not Active means under 50% inhibition at 10 µM
T1 sequence (P32238 whole entry): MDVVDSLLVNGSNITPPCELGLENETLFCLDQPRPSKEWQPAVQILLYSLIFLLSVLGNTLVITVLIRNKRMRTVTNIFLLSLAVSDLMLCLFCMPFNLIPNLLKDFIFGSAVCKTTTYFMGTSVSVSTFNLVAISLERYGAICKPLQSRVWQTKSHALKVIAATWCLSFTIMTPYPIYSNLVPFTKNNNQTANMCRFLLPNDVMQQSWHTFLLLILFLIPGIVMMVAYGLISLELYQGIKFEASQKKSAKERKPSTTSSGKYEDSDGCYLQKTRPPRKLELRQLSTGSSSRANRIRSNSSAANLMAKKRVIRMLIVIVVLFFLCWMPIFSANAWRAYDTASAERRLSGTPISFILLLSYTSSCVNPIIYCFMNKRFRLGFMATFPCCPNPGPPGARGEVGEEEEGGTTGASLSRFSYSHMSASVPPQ

[5] = target: T2, Calcitonin receptor (Homo sapiens, UniProt P30988); type: cell membranes, Membrane; settings: t47d; further: in other assays of this panel Not Active means under 50% inhibition at 10 µM
T2 sequence (P30988 whole entry): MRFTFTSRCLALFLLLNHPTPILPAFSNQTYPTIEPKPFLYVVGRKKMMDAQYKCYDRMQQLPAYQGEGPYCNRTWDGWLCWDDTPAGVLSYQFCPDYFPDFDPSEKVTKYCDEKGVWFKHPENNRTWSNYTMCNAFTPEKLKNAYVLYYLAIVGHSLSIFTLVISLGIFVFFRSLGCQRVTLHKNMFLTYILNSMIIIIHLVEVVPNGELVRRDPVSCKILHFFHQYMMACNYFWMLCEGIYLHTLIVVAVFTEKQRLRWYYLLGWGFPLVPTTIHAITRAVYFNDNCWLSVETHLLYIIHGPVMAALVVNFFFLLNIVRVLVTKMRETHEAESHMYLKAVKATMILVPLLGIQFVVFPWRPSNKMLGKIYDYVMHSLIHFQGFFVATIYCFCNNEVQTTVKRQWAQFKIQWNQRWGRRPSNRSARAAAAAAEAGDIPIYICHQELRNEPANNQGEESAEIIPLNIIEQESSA

[6] = target: T3, B2 bradykinin receptor (Homo sapiens, UniProt P30411); type: cell membranes, Membrane; settings: chem-1; further: in other assays of this panel Not Active means under 50% inhibition at 10 µM
T3 sequence (P30411 whole entry): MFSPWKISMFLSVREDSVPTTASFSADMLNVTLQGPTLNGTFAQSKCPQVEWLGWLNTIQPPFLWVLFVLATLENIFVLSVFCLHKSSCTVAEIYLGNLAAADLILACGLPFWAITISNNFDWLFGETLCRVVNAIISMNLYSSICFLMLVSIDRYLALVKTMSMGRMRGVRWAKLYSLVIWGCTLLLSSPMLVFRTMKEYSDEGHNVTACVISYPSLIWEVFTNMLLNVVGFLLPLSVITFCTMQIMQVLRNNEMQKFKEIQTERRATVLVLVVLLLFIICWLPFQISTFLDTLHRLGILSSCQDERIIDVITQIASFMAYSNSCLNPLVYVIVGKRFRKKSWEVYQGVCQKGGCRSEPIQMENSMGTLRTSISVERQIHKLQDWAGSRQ

[7] = DRUGMATRIX: GABAA, Muscimol, Central radioligand binding (ligand: [3H] Muscimol); type: cell membranes, Rattus norvegicus, Wistar, Brain, Membrane; settings: Not Active = under 50% inhibition at 10 µM
[8] = target: T4, Muscarinic acetylcholine receptor M2 (Homo sapiens, UniProt P08172); type: cell membranes, CHO-K1, Membrane; settings: cho-k1; further: in other assays of this panel Not Active means under 50% inhibition at 10 µM
T4 sequence (P08172 whole entry): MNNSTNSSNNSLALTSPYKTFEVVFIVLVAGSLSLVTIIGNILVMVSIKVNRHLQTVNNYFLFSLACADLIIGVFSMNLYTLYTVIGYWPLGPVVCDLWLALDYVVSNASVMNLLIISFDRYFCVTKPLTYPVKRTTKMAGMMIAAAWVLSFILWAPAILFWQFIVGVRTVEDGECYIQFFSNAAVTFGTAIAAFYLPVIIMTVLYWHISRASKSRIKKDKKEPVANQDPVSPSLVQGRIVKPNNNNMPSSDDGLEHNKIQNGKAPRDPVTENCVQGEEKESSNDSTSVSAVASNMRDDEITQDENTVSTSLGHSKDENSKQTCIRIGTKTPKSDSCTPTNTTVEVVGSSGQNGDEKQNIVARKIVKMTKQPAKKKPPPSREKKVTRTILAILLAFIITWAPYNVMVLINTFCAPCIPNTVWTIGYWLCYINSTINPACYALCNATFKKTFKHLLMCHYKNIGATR

[9] = DRUGMATRIX: Leukotriene, BLT (LTB4) radioligand binding (ligand: [3H]LTB4); type: cell membranes, Membrane; settings: u-937; Not Active = under 50% inhibition at 10 µM
[10] = DRUGMATRIX: Phorbol Ester radioligand binding (ligand: [3H] PDBu); type: cell membranes, Mus musculus, ICR, Brain, Membrane; settings: Not Active = under 50% inhibition at 10 µM
[11] = DRUGMATRIX: GABAA, Flunitrazepam, Central radioligand binding (ligand: [3H] Flunitrazepam); type: cell membranes, Rattus norvegicus, Wistar, Brain, Membrane; settings: Not Active = under 50% inhibition at 10 µM
[12] = DRUGMATRIX: Glutamate, NMDA, Phencyclidine radioligand binding (ligand: [3H] TCP); type: cell membranes, Rattus norvegicus, Wistar, Cerebral cortex, Membrane; settings: Not Active = under 50% inhibition at 10 µM
[13] = target: Beta-1 adrenergic receptor (Homo sapiens, UniProt P08588); assay: DRUGMATRIX: Adrenergic beta1 radioligand binding (ligand: [125I] Cyanopindolol); type: cell membranes, CHO-K1, Membrane; settings: cho-k1; Not Active = under 50% inhibition at 10 µM
Beta-1 adrenergic receptor, sequence (P08588 whole entry): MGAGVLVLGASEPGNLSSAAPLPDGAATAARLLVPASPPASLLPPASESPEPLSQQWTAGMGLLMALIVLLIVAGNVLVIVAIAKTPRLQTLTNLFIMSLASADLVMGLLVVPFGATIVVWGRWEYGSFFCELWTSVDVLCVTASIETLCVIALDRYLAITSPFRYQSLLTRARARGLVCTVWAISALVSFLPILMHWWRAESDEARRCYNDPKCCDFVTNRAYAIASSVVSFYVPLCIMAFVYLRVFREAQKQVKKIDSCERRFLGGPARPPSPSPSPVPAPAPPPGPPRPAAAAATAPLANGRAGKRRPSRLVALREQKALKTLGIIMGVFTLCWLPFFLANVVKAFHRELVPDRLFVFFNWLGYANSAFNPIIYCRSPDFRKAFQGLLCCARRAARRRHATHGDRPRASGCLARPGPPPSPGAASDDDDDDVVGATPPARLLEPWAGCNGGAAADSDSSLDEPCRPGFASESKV

[14] = DRUGMATRIX: Sigma2 radioligand binding (ligand: [3H] Ifenprodil); type: cell membranes, Rattus norvegicus, Wistar, Brain, Membrane; settings: Not Active = under 50% inhibition at 10 µM
[15] = DRUGMATRIX: Calcium Channel Type L, Dihydropyridine radioligand binding (ligand: [3H] Nitrendipine); type: cell membranes, Rattus norvegicus, Wistar, Cerebral cortex, Membrane; settings: Not Active = under 50% inhibition at 10 µM

C-C chemokine receptor type 2, sequence (P41597 whole entry): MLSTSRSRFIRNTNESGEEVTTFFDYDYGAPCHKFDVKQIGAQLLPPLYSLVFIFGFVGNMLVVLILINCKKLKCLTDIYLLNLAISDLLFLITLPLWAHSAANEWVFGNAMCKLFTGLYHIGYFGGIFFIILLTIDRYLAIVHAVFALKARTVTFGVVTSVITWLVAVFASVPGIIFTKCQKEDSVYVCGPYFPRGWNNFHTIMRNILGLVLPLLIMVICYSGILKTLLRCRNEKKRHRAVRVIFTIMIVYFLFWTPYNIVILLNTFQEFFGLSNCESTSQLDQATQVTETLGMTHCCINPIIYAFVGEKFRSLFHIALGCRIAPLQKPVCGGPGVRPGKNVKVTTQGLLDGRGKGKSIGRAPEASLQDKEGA
Beta-2 adrenergic receptor, sequence (P07550 whole entry): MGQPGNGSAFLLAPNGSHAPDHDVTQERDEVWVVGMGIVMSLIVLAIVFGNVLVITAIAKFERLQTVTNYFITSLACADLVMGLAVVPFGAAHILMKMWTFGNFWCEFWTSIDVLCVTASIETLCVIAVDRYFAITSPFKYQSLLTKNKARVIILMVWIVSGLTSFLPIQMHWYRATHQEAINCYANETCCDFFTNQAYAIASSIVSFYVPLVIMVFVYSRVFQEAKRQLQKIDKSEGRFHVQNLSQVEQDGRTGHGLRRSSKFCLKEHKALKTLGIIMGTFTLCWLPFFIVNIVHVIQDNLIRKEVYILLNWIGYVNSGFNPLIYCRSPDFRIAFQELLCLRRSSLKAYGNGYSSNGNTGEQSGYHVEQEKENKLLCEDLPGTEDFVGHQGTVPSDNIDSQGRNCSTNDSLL

COc1ccc(CCN2CCC(Nc3nc4ccccc4n3Cc3ccc(F)cc3)CC2)cc1 [ASTEMIZOLE]
19.9 µM: IC50 ([3]; read-out: IC50)
Not Active: IC50 [1] | IC50 [2] | IC50 [4] | IC50 [5] | IC50 [6]

NNc1ccccc1 [PHENYLHYDRAZINE]
Not Active: IC50 [1] | IC50 [2] | IC50 [7] | Ki [7] | IC50 ([3]; insect cells) | IC50 [8] | IC50 [9] | Ki [9] | IC50 [10] | Ki [10] | IC50 [4] | IC50 [11] | Ki [11] | IC50 [12] | Ki [12] | IC50 [13] | IC50 [14] | Ki [14] | IC50 [5] | IC50 [6] | IC50 [15] | Ki [15]

O=[N+]([O-])c1cc([As](=O)(O)O)ccc1O [ROXARSONE]
Not Active: IC50 [1] | Ki [1] | IC50 [2] | Ki [2] | IC50 [7] | Ki [7] | IC50 ([3]; insect cells) | Ki ([3]; insect cells) | IC50 [8] | Ki [8] | IC50 [9] | Ki [9] | IC50 [10] | Ki [10] | IC50 [4] | Ki [4] | IC50 [11] | Ki [11] | IC50 [12] | Ki [12] | IC50 [13] | Ki [13] | IC50 [14] | Ki [14] | IC50 [5] | Ki [5] | IC50 [6] | Ki [6] | IC50 [15] | Ki [15]

CSc1ccc2c(c1)N(CCC1CCCCN1C)c1ccccc1S2 (stereo not given) [THIORIDAZINE]
Not Active: IC50 [1] | IC50 [2] | IC50 ([3]; insect cells) | IC50 [4] | IC50 [13] | IC50 [5] | IC50 [6]

COc1cccc(C2(O)CCCCC2CN(C)C)c1 (stereo not given) [TRAMADOL]
Not Active: IC50 [1] | IC50 [2] | IC50 ([3]; insect cells) | IC50 [8] | IC50 [4] | IC50 [13] | IC50 [5] | IC50 [6]

COc1ccc(C(CN(C)C)C2(O)CCCCC2)cc1 (stereo not given) [VENLAFAXINE]
Not Active: IC50 [1] | IC50 [2] | IC50 [7] | Ki [7] | IC50 ([3]; insect cells) | IC50 [8] | IC50 [9] | Ki [9] | IC50 [10] | Ki [10] | IC50 [4] | IC50 [11] | Ki [11] | IC50 [12] | Ki [12] | IC50 [13] | IC50 [14] | Ki [14] | IC50 [5] | IC50 [6] | IC50 [15] | Ki [15]

Source: ChEMBL document CHEMBL1909046, “DrugMatrix in vitro pharmacology data”
